What all share (assay type): functional
One test concerns Streptococcus pneumoniae. Nature of the test: In vitro antibacterial activity against gram-positive Streptococcus pneumoniae.
For another test, the system named is Staphylococcus aureus. Nature of the test: In vitro antibacterial activity against gram-positive Staphylococcus aureus.
The next test relates to Citrobacter freundii. As to the kind of experiment: In vitro antibacterial activity against gram-negative Citrobacter freundii.
For the next test, the system named is Shigella boydii. As to the kind of experiment: In vitro antibacterial activity against gram-negative Shigella boydii.
The test system of another test is Klebsiella pneumoniae. Nature of the test: In vitro antibacterial activity against gram-negative Klebsiella pneumoniae.
In test [1] the test system is Staphylococcus epidermidis. Nature of the test: In vitro antibacterial activity against gram-positive Staphylococcus epidermidis.

We go through 19 compounds from ChEMBL document CHEMBL1139448, “Synthesis and antibacterial activity of 7-(substituted)aminomethyl quinolones” (2004).

Values after ≈ are worked out from the molar mass of the structure shown. Bounds are passed on as bounds.

A word on the MIC: it is the lowest concentration found to suppress growth. With `Cl.NCc1c(F)cc2c(=O)c(C(=O)O)cn(C3CC3)c2c1F`, the MIC came to 0.78 µg/mL in the test on Streptococcus pneumoniae; 12.5 µg/mL in the test with Staphylococcus aureus; 0.098 µg/mL in the test with Citrobacter freundii; 0.098 µg/mL against Shigella boydii; 0.098 µg/mL in the test on Klebsiella pneumoniae; 12.5 µg/mL in test [1].

For the compound `Cl.O=C(O)c1cn(C2CC2)c2c(F)c(CNc3ccc(F)cc3)c(F)cc2c1=O`, the lowest concentration to inhibit growth against Citrobacter freundii (MIC) was 0.39 µg/mL.

In the test with Citrobacter freundii, `Cl.O=C(O)c1cn(C2CC2)c2c(F)c(CNc3ccc(F)c(Cl)c3)c(F)cc2c1=O` yielded an MIC of 0.78 µg/mL.

In the test on Citrobacter freundii, `CN1CCN(Cc2c(F)cc3c(=O)c(C(=O)O)cn(C4CC4)c3c2F)CC1.Cl` came in with an MIC of 1.56 µg/mL.

`Cl.O=C(O)c1cn(C2CC2)c2c(F)c(CN3CCNCC3)c(F)cc2c1=O` had an MIC in the test with Citrobacter freundii of 0.195 µg/mL.

Regarding `O=C(O)c1cn(C2CC2)c2c(F)c(N3CCNCC3)c(F)cc2c1=O`, the MIC turned out to be 0.049 µg/mL (≈ 0.14 µM) against Streptococcus pneumoniae; 0.195 µg/mL (≈ 0.558 µM) in the test with Staphylococcus aureus; 0.049 µg/mL (≈ 0.14 µM) in the test on Citrobacter freundii; 0.049 µg/mL (≈ 0.14 µM) against Shigella boydii; 0.049 µg/mL (≈ 0.14 µM) against Klebsiella pneumoniae; 0.39 µg/mL (≈ 1.12 µM) in test [1].

In the test with Citrobacter freundii, `CCCCNCc1c(F)cc2c(=O)c(C(=O)O)cn(C3CC3)c2c1F.Cl` yielded an MIC of 0.098 µg/mL.

In the test on Citrobacter freundii, `Cc1cc(C)nc(NCc2c(F)cc3c(=O)c(C(=O)O)cn(C4CC4)c3c2F)c1.Cl` came in with an MIC of 0.78 µg/mL.

The compound `CCNCc1c(F)cc2c(=O)c(C(=O)O)cn(C3CC3)c2c1F.Cl` displayed an MIC in the test on Citrobacter freundii of no more than 0.049 µg/mL.

With `Cc1ccc(NCc2c(F)cc3c(=O)c(C(=O)O)cn(C4CC4)c3c2F)cc1C.Cl`, the lowest concentration to inhibit growth in the test with Citrobacter freundii (MIC) was 1.56 µg/mL.

For `CN[C@H](CC(C)C)C(=O)N[C@H]1C(=O)N[C@@H](CC(N)=O)C(=O)N[C@H]2C(=O)N[C@H]3C(=O)N[C@H](C(=O)N[C@H](C(=O)O)c4cc(O)cc(O)c4-c4cc3ccc4O)[C@H](O)c3ccc(c(Cl)c3)Oc3cc2cc(c3O[C@@H]2O[C@H](CO)[C@@H](O)[C@H](O)[C@H]2O[C@H]2C[C@](C)(N)[C@H](O)[C@H](C)O2)Oc2ccc(cc2Cl)[C@H]1O` [VANCOMYCIN], the MIC with Citrobacter freundii was greater than 6.25 µg/mL.

Take `CCn1cc(C(=O)O)c(=O)c2cc(F)c(N3CCNC(C)C3)c(F)c21` (centres undefined) [LOMEFLOXACIN]: the MIC against Streptococcus pneumoniae was found to be 0.195 µg/mL (≈ 0.555 µM); against Staphylococcus aureus it was 0.78 µg/mL (≈ 2.22 µM); against Citrobacter freundii it was 0.098 µg/mL (≈ 0.279 µM); in the test on Shigella boydii, 0.098 µg/mL (≈ 0.279 µM); in the test on Klebsiella pneumoniae it was 0.098 µg/mL (≈ 0.279 µM); in test [1] it was 0.78 µg/mL (≈ 2.22 µM).

The compound `Cl.O=C(O)c1cn(C2CC2)c2c(F)c(CNc3cccc(Cl)c3)c(F)cc2c1=O` yielded an MIC in the test with Citrobacter freundii of 1.56 µg/mL.

Regarding `CC(C)NCc1c(F)cc2c(=O)c(C(=O)O)cn(C3CC3)c2c1F.Cl`, the MIC was 1.56 µg/mL against Streptococcus pneumoniae; greater than 6.25 µg/mL in the test with Staphylococcus aureus; 0.098 µg/mL against Citrobacter freundii; 0.195 µg/mL in the test on Shigella boydii; 0.098 µg/mL against Klebsiella pneumoniae; greater than 6.25 µg/mL in test [1].

In the test on Citrobacter freundii, `Cl.O=C(O)c1cn(C2CC2)c2c(F)c(CNc3ccccc3)c(F)cc2c1=O` gave an MIC of 0.39 µg/mL.

As for `Cl.O=C(O)c1cn(C2CC2)c2c(F)c(CNc3ccc(Cl)cc3)c(F)cc2c1=O`, in the test with Citrobacter freundii, it took 1.56 µg/mL to inhibit growth (MIC).

In the case of `Cl.O=C(O)c1cn(C2CC2)c2c(F)c(CNC3CC3)c(F)cc2c1=O`, the MIC with Citrobacter freundii is no more than 0.049 µg/mL.

In the case of `CCCNCc1c(F)cc2c(=O)c(C(=O)O)cn(C3CC3)c2c1F.Cl`, in the test with Citrobacter freundii, the MIC was found to be 0.195 µg/mL.

With `Cc1ccc(NCc2c(F)cc3c(=O)c(C(=O)O)cn(C4CC4)c3c2F)cc1.Cl`, it took 0.78 µg/mL to inhibit growth in the test with Citrobacter freundii (MIC).
